Experiments:
[1] = biological target: T1, human sphingosine-1-phosphate receptor 1 (S1P1) (Homo sapiens, UniProt P21453); assay: β-Arrestin2 recruitment assay (PathHunter), S1P1 CHO-K1 cells; assay type: cell-based; settings: for Emax: CHO-K1, efficacy normalized to maximum efficacy of fingolimod, read-out: hS1P1 B-arrestin2 SPAN; for EC50: β-arrestin2 recruitment, S1P1, read-out: hS1P1 B-arrestin2 pEC50 (converted)
Outline: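 Agonist-driven β-arrestin2 recruitment measured by β-galactosidase complementation after 60 min compound exposure at 37 °C and 1 h detection at room temperature. Cells: stable CHO-K1 line expressing tagged human S1P1 with EA-β-arrestin2, plated the night before. Data expressed relative to fingolimod.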
Target sequence in this assay (P21453 whole entry): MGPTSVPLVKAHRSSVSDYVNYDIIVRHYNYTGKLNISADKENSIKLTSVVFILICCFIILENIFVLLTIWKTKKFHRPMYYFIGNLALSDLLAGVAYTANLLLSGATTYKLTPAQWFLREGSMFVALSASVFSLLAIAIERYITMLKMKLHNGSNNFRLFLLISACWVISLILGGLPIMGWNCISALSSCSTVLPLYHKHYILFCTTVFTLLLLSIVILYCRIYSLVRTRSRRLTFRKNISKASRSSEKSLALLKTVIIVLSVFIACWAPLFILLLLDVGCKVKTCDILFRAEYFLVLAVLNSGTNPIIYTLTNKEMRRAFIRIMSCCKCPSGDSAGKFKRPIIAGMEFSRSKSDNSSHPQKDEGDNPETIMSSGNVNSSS
Target sequence in this assay (P32121 whole entry partner): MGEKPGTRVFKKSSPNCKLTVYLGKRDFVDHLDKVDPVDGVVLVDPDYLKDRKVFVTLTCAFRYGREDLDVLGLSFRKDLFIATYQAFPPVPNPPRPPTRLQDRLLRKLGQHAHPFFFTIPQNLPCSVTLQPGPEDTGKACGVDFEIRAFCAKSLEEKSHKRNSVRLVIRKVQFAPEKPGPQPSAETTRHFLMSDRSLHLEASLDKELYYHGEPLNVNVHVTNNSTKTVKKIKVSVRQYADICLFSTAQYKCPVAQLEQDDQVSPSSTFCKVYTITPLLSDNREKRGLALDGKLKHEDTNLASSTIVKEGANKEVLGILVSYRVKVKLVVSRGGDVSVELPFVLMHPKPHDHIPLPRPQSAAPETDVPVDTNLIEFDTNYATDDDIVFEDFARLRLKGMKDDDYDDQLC

[2] = biological target: T1, human sphingosine-1-phosphate receptor 1 (S1P1); assay: Inhibition of cAMP production (HTRF cAMP HiRange), S1P1 CHO-K1 cells; assay type: cell-based; settings: for Emax: CHO-K1, efficacy normalized to maximum efficacy of fingolimod, read-out: hS1P1 CAMP SPAN; for EC50: inhibition of cAMP production, S1P1, read-out: hS1P1 CAMP pEC50 (converted)
Outline: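 Intracellular cAMP changes read by TR-FRET (HTRF HiRange, 1 h room temperature) after 30 min compound exposure at 37 °C. Cells: overnight-plated CHO-K1 stably expressing tagged human S1P1 with EA-β-arrestin2. Responses normalized to fingolimod.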
Target sequence in this assay (P21453 whole entry): as the sequence (P21453 whole entry) above

Row | Emax [1] | EC50 [1] | Emax [2] | EC50 [2] | Structure (SMILES)
1 | > 75% | < 10 µM | > 75% | < 0.316 µM | COc1ccccc1-c1noc(-c2cnc3c(c2)nnn3C(C)C)n1 [Compound 383, 3-(2-methoxyphenyl)-5-[3-(propan-2-yl)-3H-[1,2,3]triazolo[4,5-b]pyridin-6-yl]-1,2,4-oxadiazole]
2 | < 75% | > 10 µM | > 75% | > 0.316 µM | O=C1CCc2cc(-c3nc(-c4cccnc4)no3)ccc2N1 [Compound 386, 6-[3-(pyridin-3-yl)-1,2,4-oxadiazol-5-yl]-1,2,3,4-tetrahydro-quinolin-2-one]
3 | > 75% | < 10 µM | > 75% | > 0.316 µM | CC(C)n1ccc2cc(-c3noc(-c4ccccc4F)n3)ccc21 [Compound 387, 5-(2-fluorophenyl)-3-(1-isopropyl-1H-indol-5-yl)-1,2,4-oxadiazole]
4 | > 75% | < 10 µM | > 75% | < 0.316 µM | CC(C)n1ccc2cc(-c3noc(-c4ccccc4Br)n3)ccc21 [Compound 388, 5-(2-bromophenyl)-3-(1-isopropyl-1H-indol-5-yl)-1,2,4-oxadiazole]
5 | > 75% | < 10 µM | > 75% | < 0.316 µM | Cc1ccccc1-c1nc(-c2ccc3c(ccn3C(C)C)c2)no1 [Compound 389, 3-(1-isopropyl-1H-indol-5-yl)-5-(o-tolyl)-1,2,4-oxadiazole]
6 | < 75% | < 10 µM | > 75% | < 0.316 µM | CC(C)n1ccc2cc(-c3noc(-c4ccccc4C(F)(F)F)n3)ccc21 [Compound 390, 3-(1-isopropyl-1H-indol-5-yl)-5-(2-(trifluoromethyl)phenyl)-1,2,4-oxadiazole]
7 | < 75% | > 10 µM | < 75% | > 0.316 µM | COc1cccc(-c2nc(-c3ccc4c(ccn4C(C)C)c3)no2)c1 [Compound 392, 3-(1-isopropyl-1H-indol-5-yl)-5-(3-methoxyphenyl)-1,2,4-oxadiazole]
8 | < 75% | > 10 µM | < 75% | > 0.316 µM | COc1ccc(-c2nc(-c3ccc4c(ccn4C(C)C)c3)no2)cc1 [Compound 393, 3-(1-isopropyl-1H-indol-5-yl)-5-(4-methoxyphenyl)-1,2,4-oxadiazole]
9 | < 75% | < 10 µM | < 75% | > 0.316 µM | CC(C)n1ccc2cc(-c3noc(-c4cccc(F)c4)n3)ccc21 [Compound 394, 5-(3-fluorophenyl)-3-(1-isopropyl-1H-indol-5-yl)-1,2,4-oxadiazole]
10 | > 75% | < 10 µM | < 75% | < 0.316 µM | CC(C)n1ccc2cc(-c3noc(-c4ccncc4)n3)ccc21 [Compound 395, 3-(1-isopropyl-1H-indol-5-yl)-5-(pyridin-4-yl)-1,2,4-oxadiazole]
11 | > 75% | > 10 µM | < 75% | > 0.316 µM | CC(C)n1ccc2cc(-c3noc(-c4cccnc4)n3)ccc21 [Compound 396, 3-(1-isopropyl-1H-indol-5-yl)-5-(pyridin-3-yl)-1,2,4-oxadiazole]
12 | > 75% | > 10 µM | < 75% | > 0.316 µM | CC(C)n1ccc2cc(-c3noc(-c4ccccn4)n3)ccc21 [Compound 397, 3-(1-isopropyl-1H-indol-5-yl)-5-(pyridin-2-yl)-1,2,4-oxadiazole]
13 | < 75% | < 10 µM | > 75% | < 0.316 µM | CC(C)n1ccc2cc(-c3noc(-c4ccncc4F)n3)ccc21 [Compound 399, 5-(3-fluoropyridin-4-yl)-3-(1-isopropyl-1H-indol-5-yl)-1,2,4-oxadiazole]
14 | < 75% | > 10 µM | < 75% | > 0.316 µM | CC(C)n1ccc2cc(-c3noc(-c4ccc(F)cc4)n3)ccc21 [Compound 400, 5-(4-fluorophenyl)-3-(1-isopropyl-1H-indol-5-yl)-1,2,4-oxadiazole]
15 | < 75% | > 10 µM | < 75% | > 0.316 µM | COc1ccccc1-c1csc(-c2cnc3c(ccn3C(C)C)c2)n1 [Compound 401, 2-(1-isopropyl-1H-pyrrolo[2,3-b]pyridin-5-yl)-4-(2-methoxy-phenyl)thiazole]
16 | < 75% | > 10 µM | < 75% | < 0.316 µM | CC(C)n1ccc2cc(-c3nc(-c4ccccc4F)cs3)cnc21 [Compound 402, 4-(2-fluorophenyl)-2-(1-isopropyl-1H-pyrrolo[2,3-b]pyridin-5-yl)thiazole]

Row | Emax [1] | EC50 [1] | Emax [2] | EC50 [2] | Structure (SMILES)
17 | < 75% | > 10 µM | < 75% | > 0.316 µM | COc1cccc(-c2csc(-c3ccc4c(ccn4C(C)C)c3)n2)c1 [Compound 405, 2-(1-isopropylindol-5-yl)-4-(3-methoxy-phenyl)thiazole]
18 | < 75% | > 10 µM | > 75% | > 0.316 µM | Cc1ccccc1-c1csc(-c2cnc3c(ccn3C(C)C)c2)n1 [Compound 407, 2-(1-isopropyl-pyrrolo[2,3-b]pyridin-5-yl)-4-(o-tolyl)thiazole]
19 | < 75% | > 10 µM | > 75% | > 0.316 µM | CC(C)n1ccc2cc(-c3nc(-c4ccccc4C(F)(F)F)cs3)cnc21 [Compound 408, 2-(1-isopropylpyrrolo[2,3-b]pyridin-5-yl)-4-[2-(trifluoromethyl)phenyl] thiazole]
20 | < 75% | > 10 µM | > 75% | > 0.316 µM | Cc1ccccc1-c1csc(-c2ccc3c(ccn3C(C)C)n2)n1 [Compound 409, 2-(1-isopropyl-pyrrolo [3,2-b]pyridin-5-yl)-4-(o-tolyl)thiazole]
21 | < 75% | > 10 µM | < 75% | > 0.316 µM | COc1cccc(-c2csc(-c3ccc4c(ccn4C(C)C)n3)n2)c1 [Compound 410, 2-(1-isoproplpyrrolo[3,2-b]pyridin-5-yl)-4-(3-methoxyphenyl)thiazole]
22 | < 75% | > 10 µM | < 75% | > 0.316 µM | COc1ccccc1-c1csc(-c2ccc3c(ccn3C(C)C)n2)n1 [Compound 411, 2-(1-isopropyl-1H-pyrrolo[3,2-b]pyridin-5-yl)-4-(2-methoxyphenyl)thiazole]
23 | < 75% | > 10 µM | > 75% | > 0.316 µM | CC(C)n1ccc2nc(-c3nc(-c4ccccc4Br)cs3)ccc21 [Compound 412, 4-(2-bromophenyl)-2-(1-isopropyl-1H-pyrrolo[3,2-b]pyridin-5-yl)thiazole]
24 | > 75% | < 10 µM | < 75% | < 0.316 µM | CC(C)n1nnc2cc(-c3nc(-c4ccccc4Br)no3)cnc21 [Compound 413, 3-(2-bromophenyl)-5-[3-(propan-2-yl)-3H-[1,2,3]triazolo[4,5-b]pyridin-6-yl]-1,2,4-oxadiazole]
25 | > 75% | > 10 µM | < 75% | < 0.316 µM | Cc1ccncc1-c1noc(-c2cnc3c(c2)nnn3C(C)C)n1 [Compound 414, 4-methyl-3-{5-[3-(propan-2-yl)-3H-[1,2,3]triazolo[4,5-b]pyridin-6-yl]-1,2,4-oxadiazol-3-yl}pyridine]
26 | > 75% | > 10 µM | < 75% | < 0.316 µM | CCC1(CC)CC(=O)c2cc(-c3nc(-c4ccc5c(c4)CCC(=O)N5)no3)ccc2O1 [Compound 415, 6-(5-(2,2-diethyl-4-oxochroman-6-yl)-1,2,4-oxadiazol-3-yl)-3,4-dihydroquinolin-2(1H)-one]
27 | > 75% | < 10 µM | > 75% | < 0.316 µM | CCC1(CC)CC(=O)c2cc(-c3nc(-c4ccc5c(c4)CC(=O)N5)no3)ccc2O1 [Compound 416, 5-(5-(2,2-diethyl-4-oxochroman-6-yl)-1,2,4-oxadiazol-3-yl)indolin-2-one]
28 | > 75% | < 10 µM | > 75% | < 0.316 µM | COc1ccc2oc(-c3ccc4c(c3)nnn4C(C)C)nc2c1 [Compound 425, 2-(1-isopropyl-1H-benzo[d][1,2,3]triazol-5-yl)-5-methoxy-benzo[d]oxazole]
29 | > 75% | > 10 µM | > 75% | > 0.316 µM | CC(C)n1nnc2cc(-c3nc4cccc(Br)c4o3)ccc21 [Compound 429, 7-bromo-2-(1-isopropyl-1H-benzo[d][1,2,3]triazol-5-yl)benzo[d]oxazole]
30 | > 75% | > 10 µM | > 75% | > 0.316 µM | CCC1(CC)C/C(=N/O)c2cc(-c3nc(-c4cccnc4)no3)ccc2O1 [Compound 430, N-[(4Z)-2,2-diethyl-6-[3-(pyridin-3-yl)-1,2,4-oxadiazol-5-yl]-3,4-dihydro-2H-1-benzopyran-4-ylidene]hydroxylamine]
31 | > 75% | > 10 µM | > 75% | > 0.316 µM | CCC1(CC)C/C(=N\O)c2cc(-c3nc(-c4cccnc4)no3)ccc2O1 [Compound 431, N-[(4E)-2,2-diethyl-6-[3-(pyridin-3-yl)-1,2,4-oxadiazol-5-yl]-3,4-dihydro-2H-1-benzopyran-4-ylidene]hydroxylamine]

— US20230114241A1, “METHODS OF TREATING EPILEPSY USING THE SAME” (Trevena, Inc., priority 2019, published 2023)
